# Data reported in PubChem BioAssay AID2060510 (Molecular Pharmacology Branch, DTP, NCI, 2025).
# System: 439559-082-T-J2-PDC spheroids viability
# Test: Anticancer human tumor 439559-082-T-J2-PDC patient-derived colon adenocarcinoma cell line growth inhibition [GQUAD]
# Settings: for IC50: curve of first compound; for viability, T/C: stronger effect = lower value
# Method in brief: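 Tumor cells were grown as complex spheroids with HUVEC endothelial cells and mesenchymal stem cells as stroma. G-quadruplex stabilizers were combined with targeted agents over half-log dilutions from near the clinical Cmax, or from 10 microM.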
# [1] = second compound 0.0316 µM, first compound 0.0316 µM
# [2] = second compound 0.0316 µM, first compound 0.1 µM
# [3] = second compound 0.0316 µM, first compound 0.316 µM
# [4] = second compound 0.0316 µM, first compound 1 µM
# [5] = second compound 0.0316 µM, first compound 3.16 µM
# [6] = second compound 0.0316 µM, first compound 10 µM
# [7] = second compound 0.1 µM, first compound 0.0316 µM
# [8] = second compound 0.1 µM, first compound 0.1 µM
# [9] = second compound 0.1 µM, first compound 0.316 µM
# [10] = second compound 0.1 µM, first compound 1 µM
# [11] = second compound 0.1 µM, first compound 3.16 µM
# [12] = second compound 0.1 µM, first compound 10 µM
# [13] = second compound 0.316 µM, first compound 0.0316 µM
# [14] = second compound 0.316 µM, first compound 0.1 µM
# [15] = second compound 0.316 µM, first compound 0.316 µM
# [16] = second compound 0.316 µM, first compound 1 µM
# [17] = second compound 0.316 µM, first compound 3.16 µM
# [18] = second compound 0.316 µM, first compound 10 µM
# [19] = second compound 1 µM, first compound 0.0316 µM
# [20] = second compound 1 µM, first compound 0.1 µM
# [21] = second compound 1 µM, first compound 0.316 µM
# [22] = second compound 1 µM, first compound 1 µM
# [23] = second compound 1 µM, first compound 3.16 µM
# [24] = second compound 1 µM, first compound 10 µM
# [25] = second compound 3.16 µM, first compound 0.0316 µM
# [26] = second compound 3.16 µM, first compound 0.1 µM
# [27] = second compound 3.16 µM, first compound 0.316 µM
# [28] = second compound 3.16 µM, first compound 1 µM
# [29] = second compound 3.16 µM, first compound 3.16 µM
# [30] = second compound 3.16 µM, first compound 10 µM
# [31] = second compound 10 µM, first compound 0.0316 µM
# [32] = second compound 10 µM, first compound 0.1 µM
# [33] = second compound 10 µM, first compound 0.316 µM
# [34] = second compound 10 µM, first compound 1 µM
# [35] = second compound 10 µM, first compound 3.16 µM
# [36] = second compound 10 µM, first compound 10 µM
# 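Note: spheroids exposed to the agents for 7 days before readout.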
# 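Throughout, for viability, T/C: percent of luminescence signal in DMSO vehicle wells taken as 100% viability.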
smiles,measurement,setting,value
C#Cc1c(F)ccc2cc(O)cc(-c3ncc4c(N5CC6CCC(C5)N6)nc(OCC56CCCN5CC(F)C6)nc4c3F)c12 (stereo not given) + Cc1cnc(CNC(=O)c2c(=O)c3ccc(N4CCCN(C)CC4)nc3n3c2sc2ccccc23)cn1,IC50,second compound 0.0316 µM,9.53 µM
same,IC50,second compound 0.1 µM,> 10 µM
same,IC50,second compound 0.316 µM,6.48 µM
same,IC50,second compound 1 µM,3.09 µM
same,IC50,second compound 3.16 µM,1.91 µM
same,IC50,second compound 10 µM,0.665 µM
same,"viability, T/C",[1],92.5%
same,"viability, T/C",[2],81.9%
same,"viability, T/C",[3],76%
same,"viability, T/C",[4],62.7%
same,"viability, T/C",[5],62.6%
same,"viability, T/C",[6],47.5%
same,"viability, T/C",[7],92.6%
same,"viability, T/C",[8],80.1%
same,"viability, T/C",[9],60.1%
same,"viability, T/C",[10],61.2%
same,"viability, T/C",[11],57.2%
same,"viability, T/C",[12],53%
same,"viability, T/C",[13],81.2%
same,"viability, T/C",[14],68.8%
same,"viability, T/C",[15],68.9%
same,"viability, T/C",[16],57.9%
same,"viability, T/C",[17],58.6%
same,"viability, T/C",[18],45.2%
same,"viability, T/C",[19],86.2%
same,"viability, T/C",[20],66.9%
same,"viability, T/C",[21],65.3%
same,"viability, T/C",[22],56.1%
same,"viability, T/C",[23],49.5%
same,"viability, T/C",[24],45.8%
same,"viability, T/C",[25],71.3%
same,"viability, T/C",[26],73.1%
same,"viability, T/C",[27],56.7%
same,"viability, T/C",[28],55.8%
same,"viability, T/C",[29],47.8%
same,"viability, T/C",[30],36.8%
same,"viability, T/C",[31],59.1%
same,"viability, T/C",[32],55.9%
same,"viability, T/C",[33],49.4%
same,"viability, T/C",[34],51.3%
same,"viability, T/C",[35],42.1%
same,"viability, T/C",[36],33.7%
CC(=O)O[C@H]1C(=O)[C@@]2(C)[C@H]([C@H](OC(=O)c3ccccc3)[C@]3(O)C[C@H](OC(=O)[C@H](O)[C@@H](NC(=O)c4ccccc4)c4ccccc4)C(C)=C1C3(C)C)[C@]1(OC(C)=O)CO[C@@H]1C[C@@H]2O + Cc1cnc(CNC(=O)c2c(=O)c3ccc(N4CCCN(C)CC4)nc3n3c2sc2ccccc23)cn1,IC50,second compound 0.0316 µM,2.82 µM
same,IC50,second compound 0.1 µM,3.41 µM
same,IC50,second compound 0.316 µM,3.38 µM
same,IC50,second compound 1 µM,3.3 µM
same,IC50,second compound 3.16 µM,5.1 µM
same,IC50,second compound 10 µM,4.09 µM
same,"viability, T/C",[1],89.9%
same,"viability, T/C",[2],89.1%
same,"viability, T/C",[3],81.3%
same,"viability, T/C",[4],74.2%
same,"viability, T/C",[5],46.1%
same,"viability, T/C",[6],39.6%
same,"viability, T/C",[7],97.5%
same,"viability, T/C",[8],88%
same,"viability, T/C",[9],70.7%
same,"viability, T/C",[10],70%
same,"viability, T/C",[11],46%
same,"viability, T/C",[12],40.5%
same,"viability, T/C",[13],90.3%
same,"viability, T/C",[14],81.2%
same,"viability, T/C",[15],78.2%
same,"viability, T/C",[16],65.8%
same,"viability, T/C",[17],49.3%
same,"viability, T/C",[18],39.2%
same,"viability, T/C",[19],74.7%
same,"viability, T/C",[20],72.8%
same,"viability, T/C",[21],76.6%
same,"viability, T/C",[22],61.8%
same,"viability, T/C",[23],51.8%
same,"viability, T/C",[24],42.9%
same,"viability, T/C",[25],62.2%
same,"viability, T/C",[26],73.1%
same,"viability, T/C",[27],72.5%
same,"viability, T/C",[28],58.9%
same,"viability, T/C",[29],54.7%
same,"viability, T/C",[30],42.4%
same,"viability, T/C",[31],64.8%
same,"viability, T/C",[32],57.1%
same,"viability, T/C",[33],61.1%
same,"viability, T/C",[34],56%
same,"viability, T/C",[35],55.3%
same,"viability, T/C",[36],36.6%
CCCS(=O)(=O)Nc1ccc(F)c(C(=O)c2c[nH]c3ncc(-c4ccc(Cl)cc4)cc23)c1F + Cc1cnc(CNC(=O)c2c(=O)c3ccc(N4CCCN(C)CC4)nc3n3c2sc2ccccc23)cn1,IC50,second compound 0.0316 µM,> 10 µM
same,IC50,second compound 0.1 µM,> 10 µM
same,IC50,second compound 0.316 µM,> 10 µM
same,IC50,second compound 1 µM,9.59 µM
same,IC50,second compound 3.16 µM,6.53 µM
same,IC50,second compound 10 µM,3.76 µM
same,"viability, T/C",[1],97.5%
same,"viability, T/C",[2],103%
same,"viability, T/C",[3],103%
same,"viability, T/C",[4],101%
same,"viability, T/C",[5],101%
same,"viability, T/C",[6],77.1%
same,"viability, T/C",[7],96.9%
same,"viability, T/C",[8],99.5%
same,"viability, T/C",[9],99.7%
same,"viability, T/C",[10],99.3%
same,"viability, T/C",[11],99.1%
same,"viability, T/C",[12],53.2%
same,"viability, T/C",[13],84.4%
same,"viability, T/C",[14],89.7%
same,"viability, T/C",[15],90%
same,"viability, T/C",[16],86.1%
same,"viability, T/C",[17],88.1%
same,"viability, T/C",[18],54%
same,"viability, T/C",[19],78.4%
same,"viability, T/C",[20],78.5%
same,"viability, T/C",[21],78%
same,"viability, T/C",[22],78.2%
same,"viability, T/C",[23],83.8%
same,"viability, T/C",[24],48.9%
same,"viability, T/C",[25],70.9%
same,"viability, T/C",[26],71.5%
same,"viability, T/C",[27],70.8%
same,"viability, T/C",[28],63.5%
same,"viability, T/C",[29],68.1%
same,"viability, T/C",[30],39.7%
same,"viability, T/C",[31],60.8%
same,"viability, T/C",[32],58.6%
same,"viability, T/C",[33],70.2%
same,"viability, T/C",[34],64.5%
same,"viability, T/C",[35],57.5%
same,"viability, T/C",[36],5.82%
Nc1ccn(C2OC(CO)C(O)C2(F)F)c(=O)n1 (stereo not given) + Cc1cnc(CNC(=O)c2c(=O)c3ccc(N4CCCN(C)CC4)nc3n3c2sc2ccccc23)cn1,IC50,second compound 0.0316 µM,0.234 µM
same,IC50,second compound 0.1 µM,0.213 µM
same,IC50,second compound 0.316 µM,0.231 µM
same,IC50,second compound 1 µM,0.174 µM
same,IC50,second compound 3.16 µM,0.171 µM
same,IC50,second compound 10 µM,0.153 µM
same,"viability, T/C",[1],87.8%
same,"viability, T/C",[2],65.9%
same,"viability, T/C",[3],41.4%
same,"viability, T/C",[4],35.3%
same,"viability, T/C",[5],27.3%
same,"viability, T/C",[6],20.8%
same,"viability, T/C",[7],81.4%
same,"viability, T/C",[8],62.3%
same,"viability, T/C",[9],43.4%
same,"viability, T/C",[10],29.8%
same,"viability, T/C",[11],27.8%
same,"viability, T/C",[12],18.4%
same,"viability, T/C",[13],84.2%
same,"viability, T/C",[14],65.4%
same,"viability, T/C",[15],42.9%
same,"viability, T/C",[16],31.9%
same,"viability, T/C",[17],25.4%
same,"viability, T/C",[18],19.2%
same,"viability, T/C",[19],74.3%
same,"viability, T/C",[20],61.7%
same,"viability, T/C",[21],37.4%
same,"viability, T/C",[22],28.8%
same,"viability, T/C",[23],26%
same,"viability, T/C",[24],27.3%
same,"viability, T/C",[25],66.9%
same,"viability, T/C",[26],56.1%
same,"viability, T/C",[27],43.5%
same,"viability, T/C",[28],28.3%
same,"viability, T/C",[29],25.7%
same,"viability, T/C",[30],19.6%
same,"viability, T/C",[31],67.2%
same,"viability, T/C",[32],56.3%
same,"viability, T/C",[33],39.3%
same,"viability, T/C",[34],29.8%
same,"viability, T/C",[35],24.6%
same,"viability, T/C",[36],22.6%
O=c1[nH]cc(F)c(=O)[nH]1 + Cc1cnc(CNC(=O)c2c(=O)c3ccc(N4CCCN(C)CC4)nc3n3c2sc2ccccc23)cn1,IC50,second compound 0.0316 µM,> 10 µM
same,IC50,second compound 0.1 µM,> 10 µM
same,IC50,second compound 0.316 µM,> 10 µM
same,IC50,second compound 1 µM,> 10 µM
same,IC50,second compound 3.16 µM,> 10 µM
same,IC50,second compound 10 µM,> 10 µM
same,"viability, T/C",[1],100%
same,"viability, T/C",[2],102%
same,"viability, T/C",[3],87.2%
same,"viability, T/C",[4],74.5%
same,"viability, T/C",[5],67%
same,"viability, T/C",[6],63.6%
same,"viability, T/C",[7],91.9%
same,"viability, T/C",[8],96.4%
same,"viability, T/C",[9],81.2%
same,"viability, T/C",[10],72.9%
same,"viability, T/C",[11],68.7%
same,"viability, T/C",[12],67.4%
same,"viability, T/C",[13],88.2%
same,"viability, T/C",[14],90%
same,"viability, T/C",[15],73.7%
same,"viability, T/C",[16],63.5%
same,"viability, T/C",[17],66.7%
same,"viability, T/C",[18],66%
same,"viability, T/C",[19],88.9%
same,"viability, T/C",[20],73.6%
same,"viability, T/C",[21],62.7%
same,"viability, T/C",[22],59.9%
same,"viability, T/C",[23],66.4%
same,"viability, T/C",[24],65.2%
same,"viability, T/C",[25],62.5%
same,"viability, T/C",[26],68.3%
same,"viability, T/C",[27],63%
same,"viability, T/C",[28],58.4%
same,"viability, T/C",[29],59.9%
same,"viability, T/C",[30],52.7%
same,"viability, T/C",[31],68.7%
same,"viability, T/C",[32],66.3%
same,"viability, T/C",[33],67.8%
same,"viability, T/C",[34],57.8%
same,"viability, T/C",[35],57.7%
same,"viability, T/C",[36],58.3%
